*1 amine or outer side, *2 acyl side, *3 side chain or, on linkers, in order; H or OH if unused. Where a SMILES comes first, the peptide text is derived from it. Side-chain parts run from the residue outwards. [ ]: non-standard residue; d: D form. The star is where a group is joined. ξ: configuration not given here. NH(4-MeO-phenyl) = COc1ccc(N*)cc1; ξW = NC(Cc1c[nH]c2ccccc12)C(=O)O; pNA = O=[N+]([O-])c1ccc(N*)cc1; X2 = O=[N+]([O-])c1cccc(N*)c1; NH(3-MeOPh) = COc1cccc(N*)c1; 3Abz = Nc1cccc(C(=O)O)c1; ξF = NC(Cc1ccccc1)C(=O)O; X1 = CC(=O)c1ccc(N*)cc1; ξD = NC(CC(=O)O)C(=O)O; Boc = CC(C)(C)OC(=O)*; CO = O=C([*:1])[*:2]

One assay has as its target Gastrin/cholecystokinin type B receptor (Cavia porcellus). Kind of assay: Inhibitory activity against Cholecystokinin type B receptor using [125I]- BH-CCK-8 as radioligand in cortex tissue of guinea pig.
One may read the IC50 as the concentration at which inhibition is half-maximal. Read a low IC50 as greater potency in that assay. As for `CSCCC(NC(=O)NC(CC(=O)O)C(=O)NC(Cc1ccccc1)C(N)=O)C(=O)NC(=O)C(Cc1c[nH]c2ccccc12)NC(=O)OC(C)(C)C` (configuration not stated) [3-(3-{1-[2-tert-Butoxycarbonylamino-3-(1H-indol-3-yl)-propionylcarbamoyl]-3-methylsulfanyl-propyl}-ureido)-N-(1-carbamoyl-2-phenyl-ethyl)-succinamic acid], the IC50 came to 25 nM.

The next assay has the same target. Kind of assay: Displacement of [125I]- BH-CCK-8 from Cholecystokinin type B receptor of guinea pig cortex.
Molecule `COC(=O)c1cccc(NC(=O)NCCCC[C@H](NC(=O)C(Cc2c[nH]c3ccccc23)NC(=O)OC(C)(C)C)C(=O)NC(CC(=O)O)C(=O)NC(Cc2ccccc2)C(N)=O)c1` (some centres not stated) (Boc-[ξW]K([CO-3Abz-OMe])[ξD][ξF]-NH2) showed an IC50 of 1000 nM.

Molecule `COc1cccc(NC(=O)NCCCC[C@H](NC(=O)C(Cc2c[nH]c3ccccc23)NC(=O)OC(C)(C)C)C(=O)NC(CC(=O)O)C(=O)NC(Cc2ccccc2)C(N)=O)c1` (stereo partly drawn) [3-{(S)-2-[2-tert-Butoxycarbonylamino-3-(1H-indol-3-yl)-propionylamino]-6-[3-(3-methoxy-phenyl)-ureido]-hexanoylamino}-N-(1-carbamoyl-2-phenyl-ethyl)-succinamic acid] (Boc-[ξW]K([CO-NH(3-MeOPh)])[ξD][ξF]-NH2) registered an IC50 of 1400 nM.

Consider `CC(C)(C)OC(=O)N[C@@H](Cc1c[nH]c2ccccc12)C(=O)N[C@@H](CCCCNC(=O)Nc1cccc([N+](=O)[O-])c1)C(=O)N[C@@H](CC(=O)O)C(=O)N[C@@H](Cc1ccccc1)C(N)=O` [3-{(S)-2-[2-tert-Butoxycarbonylamino-3-(1H-indol-3-yl)-propionylamino]-6-[3-(3-nitro-phenyl)-ureido]-hexanoylamino}-N-(1-carbamoyl-2-phenyl-ethyl)-succinamic acid] (Boc-WK([CO-X2])DF-NH2), for which the IC50 worked out at 1200 nM.

Turning to `COc1ccc(NC(=O)NCCCC[C@H](NC(=O)C(Cc2c[nH]c3ccccc23)NC(=O)OC(C)(C)C)C(=O)NC(CC(=O)O)C(=O)NC(Cc2ccccc2)C(N)=O)cc1` (stereo partly drawn) [3-{(S)-2-[2-tert-Butoxycarbonylamino-3-(1H-indol-3-yl)-propionylamino]-6-[3-(4-methoxy-phenyl)-ureido]-hexanoylamino}-N-(1-carbamoyl-2-phenyl-ethyl)-succinamic acid] (Boc-[ξW]K([CO-NH(4-MeO-phenyl)])[ξD][ξF]-NH2), the IC50 worked out at 750 nM.

The molecule `CC(C)(C)OC(=O)NC(Cc1c[nH]c2ccccc12)C(=O)N[C@@H](CCCCNC(=O)Nc1ccc([N+](=O)[O-])cc1)C(=O)NC(CC(=O)O)C(=O)NC(Cc1ccccc1)C(N)=O` (stereo partly drawn) [3-{(S)-2-[2-tert-Butoxycarbonylamino-3-(1H-indol-3-yl)-propionylamino]-6-[3-(4-nitro-phenyl)-ureido]-hexanoylamino}-N-(1-carbamoyl-2-phenyl-ethyl)-succinamic acid] (Boc-[ξW]K([CO-pNA])[ξD][ξF]-NH2) yielded an IC50 of 31 nM.

For the molecule `CC(=O)c1ccc(NC(=O)NCCCC[C@H](NC(=O)C(Cc2c[nH]c3ccccc23)NC(=O)OC(C)(C)C)C(=O)NC(CC(=O)O)C(=O)NC(Cc2ccccc2)C(N)=O)cc1` (stereo partly drawn) [3-{(S)-6-[3-(4-Acetyl-phenyl)-ureido]-2-[2-tert-butoxycarbonylamino-3-(1H-indol-3-yl)-propionylamino]-hexanoylamino}-N-(1-carbamoyl-2-phenyl-ethyl)-succinamic acid] (Boc-[ξW]K([CO-X1])[ξD][ξF]-NH2), the IC50 stood at 12 nM.

For the origin of these results see BindingDB's records for doi:10.1021/jm960509y (Abbott Laboratories, 1997).
